Reference: US7504399B2, “Piperazine enamines as antiviral agents” (priority 2006, dated 2009)

These molecules were tested on HIV-1 single-round infectious reporter virus (assay: Single-round infectious HIV-1 luciferase reporter virus infection assay in HeLa CD4 cells). Details: Human immunodeficiency virus 1, HeLa, 72 h, read-out: EC50 Group from Table 1.
Type: cell-based
Experimental: • Virus production-Human embryonic Kidney cell line, 293T, was propagated in Dulbecco's Modified Eagle Medium (Invitrogen, Carlsbad, Calif.) containing 10% fetal Bovine serum (FBS, Sigma, St. Louis, Mo.). • Virus infection—Human epithelial cell line, HeLa, expressing the HIV-1 receptor CD4 was propagated in Dulbecco's Modified Eagle Medium (Invitrogen, Carlsbad, Calif.) containing 10% fetal Bovine serum (FBS, Sigma, St. Louis, Mo.) and supplemented with 0.2 mg/mL Geneticin (Invitrogen, Carlsbad, Calif.). Virus-Single-round infectious reporter virus was produced by co-transfecting human embryonic Kidney 293 cells with an HIV-1 envelope DNA expression vector and a proviral cDNA containing an envelope deletion mutation and the luciferase reporter gene inserted in place of HIV-1 nef sequences (Chen et al., Ref. 41). Transfections were performed using lipofectAMINE PLUS reagent as described by the manufacturer (Invitrogen, Carlsbad, Calif.). Experiment • 1. HeLa CD4 cells were plated in 96 well plates at a cell density of 1×10^4 cells per well in 100 μl Dulbecco's Modified Eagle Medium containing 10% fetal Bovine serum and incubated overnight. • 2. Compound was added in a 2 μl dimethylsulfoxide solution, so that the final assay concentration would be ≦10 μM. • 3. 100 μl of single-round infectious reporter virus in Dulbecco's Modified Eagle Medium was then added to the plated cells and compound at an approximate multiplicity of infection (MOI) of 0.01, resulting in a final volume of 200 μl per well. • 4. Virally-infected cells were incubated at 37 degrees Celsius, in a CO2 incubator, and harvested 72 h after infection. • 5. Viral infection was monitored by measuring luciferase expression from viral DNA in the infected cells using a luciferase reporter gene assay kit, as described by the manufacturer (Roche Molecular Biochemicals, Indianapolis, Ind.). Infected cell supernatants were removed and 50 μl of lysis buffer was added per well. After 15 minutes, 50 μl of freshly-reconstituted luciferase assay reagent was added per well. Luciferase activity was then quantified by measuring luminescence using a Wallac microbeta scintillation counter. • 6. The percent inhibition for each compound was calculated by quantifying the level of luciferase expression in cells infected in the presence of each compound as a percentage of that observed for cells infected in the absence of compound and subtracting such a determined value from 100. • 7. An EC50 provides a method for comparing the antiviral potency of the compounds of this disclosure. The effective concentration for fifty percent inhibition (EC50) was calculated with the Microsoft Excel Xlfit curve fitting software. For each compound, curves were generated from percent inhibition calculated at 10 different concentrations by using a four paramenter logistic model (model 205). Table 1 is the key for the data in Table 2. Results

Compound	EC50 [nM]
COc1cnc(-n2cnc(C)n2)c2[nH]cc(C(=O)C(=O)N3CCN(/C(=C/C#N)c4ccccc4)CC3)c12 [EN-05]	< 1000
O=C(O)/C=C(\c1ccccc1)N1CCN(C(=O)C(=O)c2c[nH]c3cccc(F)c23)CC1 [EN-09]	< 1000
N#CC(C#N)=C(c1ccccc1)N1CCN(C(=O)C(=O)c2c[nH]c3ccccc23)CC1 [EN-02, 2-((4-(2-(1H-indol-3-yl)-2-oxoacetyl)piperazin-1-yl)(phenyl)methylene)malononitrile]	< 1000
COc1cnc(-n2ccnn2)c2[nH]cc(C(=O)C(=O)N3CCN(C(=C(C#N)C#N)c4ccccc4)CC3)c12 [EN-07]	< 1000
COc1cnc(Cl)c2[nH]cc(C(=O)C(=O)N3CCN(C(=C(C#N)C#N)c4ccccc4)CC3)c12 [EN-10]	< 1000
N#CC(C#N)=C(c1ccccc1)N1CCN(C(=O)C(=O)c2c[nH]c3cccc(F)c23)CC1 [EN-11, 2-((4-(2-(4-fluoro-1H-indol-3-yl)-2-oxoacetyl)piperazin-1-yl)(phenyl)methylene)malononitrile]	< 1000
COc1cnc(-n2ccnn2)c2[nH]cc(C(=O)C(=O)N3CCN(/C(=C/C#N)c4ccccc4)CC3)c12 [EN-06]	< 1000
N#C/C=C(\c1ccccc1)N1CCN(C(=O)C(=O)c2c[nH]c3c(Br)ccc(F)c23)CC1 [EN-03]	< 1000
N#CC(C#N)=C(c1ccccc1)N1CCN(C(=O)C(=O)c2c[nH]c3c(-n4ccnn4)ncc(F)c23)CC1 [EN-08, 2-((4-(2-(4-fluoro-7-(1H-1,2,3-triazol-1-yl)-1H-pyrrolo[2,3-c]pyridin-3-yl)-2-oxoacetyl)piperazin-1-yl)(phenyl)methylene)malononitrile]	< 1000
N#C/C=C(\c1ccccc1)N1CCN(C(=O)C(=O)c2c[nH]c3ccccc23)CC1 [EN-01]	< 1000
COc1cnc(Cl)c2[nH]cc(C(=O)C(=O)N3CCN(/C(=C/C#N)c4ccccc4)CC3)c12 [EN-13]	< 1000
